Ends that are not written are not given here.

Consider two compounds from US20190076555A1, “TUMOR TARGETING NANOAGENT FOR IMAGING AND FLUORESCENT GUIDED RESECTION OF TUMORS” (priority 2017, published 2019).

A short description of data set [1]: Absorbance spectra of free and conjugated ICG (600-900 nm). Format: physicochemical. As to conditions: PBS pH7.4. Here is the method:
Absorbance of free and conjugated ICG was measured within a wavelength range of 600-900 nm. Stock solution of free ICG was prepared in DMSO at a concentration of 25 mM and sample was diluted in PBS, pH7.4. FIGS. 3A-3J illustrate absorbance spectra of free and conjugated ICG.

A further data set relates to U87 MG glioma cells. In words: Competition with binding of NIA to glioma cells by flow cytometry. The arrangement: species or system human. The note with it: 5 μM NIA (100%) competed with 125 μM competitor. For orientation: In flow cytometry, cells or beads pass a laser one at a time.

Method for U87 MG glioma cells: FIG. 11C illustrates flow cytometry histogram for CTX (not fluorescent) competing with binding of NIA (content 5 μM CTXtot) at various concentrations of competing CTX. The following combinations were tested: PBS no ligand (solid line), NIA+125 μM CTX (dashed line), NIA+50 μM CTX (dotdashed line), NIA+5 μM (longdashed line), and NIA 5 μM (dash-twodotted line). […] The abscissa intercept indicates the maximum level of fluorescence decrease due to competition at extrapolated infinite concentrations of CTX.
The saturation curves in the insets were calculated as average fluorescence intensities as function of overall CTX, (CTXtot), concentrations. […] Each molecule of NIA contains on average 7.75 groups of CTX. […] Since the inhibitors are not fluorescence labeled, the inhibition would be indicated by the reduction of MFI if NIA is the competed ligand.

On to `CC1(C)C(/C=C/C=C/C=C/C=C2\N(CCCCS(=O)(=O)O)c3ccc4ccccc4c3C2(C)C)=[N+](CCCCS(=O)(=O)[O-])c2ccc3ccccc3c21` [free ICG, Indocyanine Green], for which the maximum absorbance wavelength in data set [1] (high concentration 100 μM ICG) was determined as 695 nm; in data set [1] (lower concentration 3 μM ICG), 780 nm. In the case of “P/LLL(40%): polymalic acid with tri-leucine (40%), not fluorescence labelled competitor (Leu-Leu-Leu; not fully specified)”, the “decrease in mean fluorescence intensity of NIA” value in the data set on U87 MG glioma cells was 41-46%.
